Assay: Radioligand stability in mice (radio-HPLC of blood and urine)
Assay type: in vivo
Conditions: mean ± SD
Summary of the method: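 Male Swiss albino mice (n=3) given 2.5–3 nmol radioligand i.v. via tail vein in saline/EtOH 9/1. Blood at 5 min and urine at 30 min pi, EDTA-treated on ice, MeCN-deproteinised, analysed by radio-RP-HPLC; value is mean percent intact radioligand ± SD.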

CC(C)(C)C(=O)CN1C(=O)[C@H](NC(=O)Nc2cccc(C(=O)NCCOCCOCCOCCNC(=O)[C@H](CCC(=O)O)NC(=O)CCC(C(=O)O)N3CCN(CC(=O)[O-])CCN(CC(=O)[O-])CCN(CC(=O)[O-])CC3)c2)CN(C2CCCCC2)c2ccccc21.[177Lu+3] (stereo in doubt) [[^177Lu]Lu-GAS3]
Intact radioligand in blood (mice blood collected 5 min pi): 95.8 ± 2.0 (3) % | Intact radioligand in urine (mice urine collected 30 min pi): 88.1 ± 0.4 (3) %
